Our source for the MIC values is patent US11135237B2, “Lipophosphonoxins of second generation, and their use” (USTAV ORGANICKE CHEMIE A BIOCHEMIE AV CR, V.V.I., priority 2016, dated 2021).

What all share (type): cell-based
For one assay, the system named is S. haemolyticus 16568. In words: MIC, microdilution method, resistant strains. The settings on record: Staphylococcus haemolyticus, fluoroquinolone-resistant strain, clinical isolate. How it is done: (§1) Antibacterial activity was measured using a standard microdilution method, showing the minimum inhibitory concentration (MIC) of the test sample which results in inhibition of bacterial growth. Disposable microtiter plates were used for the tests. Samples are dissolved in the brain-heart infusion broth (HiMedia Laboraties Pvt. Ltd., Czech Republic), and Mueller Hinton broth (HiMedia Laboraties, see above) at a final concentration ranging from 200 μg/ml to 1.5625 μg/ml. Plates were inoculated with a standard amount of test bacteria—inoculum density in the hole corresponds to 10^5-6 CFU/ml (colony forming units/ml). MIC values are read after 24/48 hours of incubation at 37° C. as the minimum inhibitory concentration of the test substance at which the growth of bacteria is inhibited. Minimal bactericidal concentration (MBC) is defined as the minimum concentration of the sample needed to achieve irreversible inhibition, therefore killing the bacteria after a defined time of incubation. The MBC was determined by inoculation method. 10 μl from the wells in a microplate with a defined concentration of test substance is taken with an applicator, and inoculated onto the surface of blood agar (Trios, Czech Republic) and Sabouraud agar (Trios, CR). The MBC was determined as the lowest concentration that inhibited visible growth of the bacteria used.

Another assay concerns E. coli 16702. In words: MIC, microdilution method, resistant strains. As to conditions: Escherichia coli, resistant strain, clinical isolate. How it is done: as §1
Another assay relates to P. aeruginosa 16575. The assay can be described thus: MIC, microdilution method, resistant strains. As to conditions: Pseudomonas aeruginosa, resistant strain, clinical isolate. How it is done: as §1
The next assay deals with S. epidermidis 8700B. The assay can be described thus: MIC, microdilution method, resistant strains. The settings on record: Staphylococcus epidermidis, methicilin-resistant strain, clinical isolate. How it is done: as §1
The next assay has as its system S. aureus MRSA 4591. In words: MIC, microdilution method, resistant strains. The settings on record: Staphylococcus aureus, methicillin-resistant strain, clinical isolate. How it is done:
as §1

Another assay relates to E. faecium VanA 419ana. The assay can be described thus: MIC, microdilution method, resistant strains. The settings on record: Enterococcus faecium, VANA419ANA; vancomycin-resistant strain, clinical isolate. How it is done:
as §1

A further assay deals with Streptococcus agalactiae. In words: MIC, microdilution method, reference strains. The settings on record: read after 24/48 hours of incubation at 37° C. How it is done:
as §1, with “bacteria-inoculum” for “bacteria—inoculum”, “used. Standard reference bacterial strains (Escherichia coli CCM 3954, Pseudomonas aeruginosa CCM 3955, Enterococcus faecalis CCM 4224, Staphylococcus aureus CCM 4223) were obtained from the Czech Collection of Microorganisms (CCM) at […] University in Brno. Streptococcus agalactiae, Bacillus subtilis were obtained from the University Hospital Olomouc. The tested microorganisms were maintained in cryobanks (ITEST plus, Czech Republic) at -80° C.” for “used.”

In another assay the test system is Bacillus subtilis. The assay can be described thus: MIC, microdilution method, reference strains. The settings on record: read after 24/48 hours of incubation at 37° C. How it is done:
as §1, with “bacteria-inoculum” for “bacteria—inoculum”, “used. Standard reference bacterial strains (Escherichia coli CCM 3954, Pseudomonas aeruginosa CCM 3955, Enterococcus faecalis CCM 4224, Staphylococcus aureus CCM 4223) were obtained from the Czech Collection of Microorganisms (CCM) at […] University in Brno. Streptococcus agalactiae, Bacillus subtilis were obtained from the University Hospital Olomouc. The tested microorganisms were maintained in cryobanks (ITEST plus, Czech Republic) at -80° C.” for “used.”

The test system of assay [1] is Enterococcus faecalis CCM 4224. In words: MIC, microdilution method, reference strains. As to conditions: CCM4224, read after 24/48 hours of incubation at 37° C. How it is done: as §1, with “bacteria-inoculum” for “bacteria—inoculum”, “used. Standard reference bacterial strains (Escherichia coli CCM 3954, Pseudomonas aeruginosa CCM 3955, Enterococcus faecalis CCM 4224, Staphylococcus aureus CCM 4223) were obtained from the Czech Collection of Microorganisms (CCM) at […] University in Brno. Streptococcus agalactiae, Bacillus subtilis were obtained from the University Hospital Olomouc. The tested microorganisms were maintained in cryobanks (ITEST plus, Czech Republic) at -80° C.” for “used.”

Assay [2] has as its system Staphylococcus aureus CCM 4223. The assay can be described thus: MIC, microdilution method, reference strains. As to conditions: CCM4223, read after 24/48 hours of incubation at 37° C. How it is done:
as §1, with “bacteria-inoculum” for “bacteria—inoculum”, “used. Standard reference bacterial strains (Escherichia coli CCM 3954, Pseudomonas aeruginosa CCM 3955, Enterococcus faecalis CCM 4224, Staphylococcus aureus CCM 4223) were obtained from the Czech Collection of Microorganisms (CCM) at […] University in Brno. Streptococcus agalactiae, Bacillus subtilis were obtained from the University Hospital Olomouc. The tested microorganisms were maintained in cryobanks (ITEST plus, Czech Republic) at -80° C.” for “used.”

The subject of assay [3] is Escherichia coli CCM 3954. The assay can be described thus: MIC, microdilution method, reference strains. The settings on record: CCM3954, read after 24/48 hours of incubation at 37° C. How it is done: as §1, with “bacteria-inoculum” for “bacteria—inoculum”, “used. Standard reference bacterial strains (Escherichia coli CCM 3954, Pseudomonas aeruginosa CCM 3955, Enterococcus faecalis CCM 4224, Staphylococcus aureus CCM 4223) were obtained from the Czech Collection of Microorganisms (CCM) at […] University in Brno. Streptococcus agalactiae, Bacillus subtilis were obtained from the University Hospital Olomouc. The tested microorganisms were maintained in cryobanks (ITEST plus, Czech Republic) at -80° C.” for “used.”

Assay [4] concerns Pseudomonas aeruginosa CCM 3955. The assay can be described thus: MIC, microdilution method, reference strains. The settings on record: CCM3955, read after 24/48 hours of incubation at 37° C. How it is done: as §1, with “bacteria-inoculum” for “bacteria—inoculum”, “used. Standard reference bacterial strains (Escherichia coli CCM 3954, Pseudomonas aeruginosa CCM 3955, Enterococcus faecalis CCM 4224, Staphylococcus aureus CCM 4223) were obtained from the Czech Collection of Microorganisms (CCM) at […] University in Brno. Streptococcus agalactiae, Bacillus subtilis were obtained from the University Hospital Olomouc. The tested microorganisms were maintained in cryobanks (ITEST plus, Czech Republic) at -80° C.” for “used.”

Assay [5] relates to Stenotrophomonas matophilia S2-23. The assay can be described thus: MIC, microdilution method. As to conditions: S223, read after 24/48 hours of incubation at 37° C. How it is done:
as §1

Assay [6] relates to Burkholderia multivorans ATCC BAA-247. The assay can be described thus: MIC, microdilution method. The settings on record: ATCCBAA247, read after 24/48 hours of incubation at 37° C. How it is done: as §1
For assay [7], the system named is Acinetobacter baumanii A3-08. In words: MIC, microdilution method. As to conditions: Acinetobacter baumannii, A308; read after 24/48 hours of incubation at 37° C. How it is done:
as §1

The test system of assay [8] is Salmonella Enteritidis S2-25. In words: MIC, microdilution method. The settings on record: Salmonella enterica, read after 24/48 hours of incubation at 37° C. How it is done: as §1

≈ marks a conversion by molar mass, not a printed value.

As to `CCCCCCCCCCCCCCCCOP(=O)(CCN(CCCN)CCCN)OC[C@H]1O[C@@H](n2ccc(=O)[nH]c2=O)C(O)C1O` (some centres unmarked) [Example 1, Hexadecyl-uridine-5′-yl-2-N-bis (3-aminopropyl)-2-aminoethyl phosphonate], the MIC in the assay with S. haemolyticus 16568 worked out at 3.12 µg/mL (≈ 4.53 µM); against E. coli 16702 it was 3.12 µg/mL (≈ 4.53 µM); against P. aeruginosa 16575 it was 3.12 µg/mL (≈ 4.53 µM); in the assay with S. epidermidis 8700B, 3.12 µg/mL (≈ 4.53 µM); in the assay on S. aureus MRSA 4591, 25 µg/mL (≈ 36.2 µM); in the assay on E. faecium VanA 419ana, 25 µg/mL (≈ 36.2 µM). Besides, the MIC against Streptococcus agalactiae was 3.12 µg/mL (≈ 4.53 µM); with Bacillus subtilis, 0.78 µg/mL (≈ 1.13 µM); in assay [1], 50 µg/mL (≈ 72.5 µM); in assay [2] it was 12.5 µg/mL (≈ 18.1 µM); in [3] it was 3.12 µg/mL (≈ 4.53 µM); in assay [4] it was 6.25 µg/mL (≈ 9.06 µM).

Consider `CCCCCCCCCCCCCCCOP(=O)(CCN(CCCN)CCCN)OC[C@H]1O[C@@H](n2ccc(=O)[nH]c2=O)C(O)C1O` (some centres unmarked) [Example 2, Pentadecyl-uridine-5′-yl-2-N-bis(3-aminopropyl)-2-aminoethyl phosphonate], for which the MIC against S. haemolyticus 16568 was determined as 3.12 µg/mL (≈ 4.62 µM); against E. coli 16702 it was 6.25 µg/mL (≈ 9.25 µM); against P. aeruginosa 16575, 3.12 µg/mL (≈ 4.62 µM); in the assay with S. epidermidis 8700B, 6.25 µg/mL (≈ 9.25 µM); against S. aureus MRSA 4591 it was 12.5 µg/mL (≈ 18.5 µM); against E. faecium VanA 419ana, 25 µg/mL (≈ 37 µM). The MIC against Streptococcus agalactiae worked out at 3.12 µg/mL (≈ 4.62 µM); with Bacillus subtilis it was 1.56 µg/mL (≈ 2.31 µM); in assay [1], 50 µg/mL (≈ 74 µM); in assay [2], 6.25 µg/mL (≈ 9.25 µM); in [3] it was 6.25 µg/mL (≈ 9.25 µM); in assay [4] it was 3.12 µg/mL (≈ 4.62 µM). For the same compound, the MIC in [5] amounted to 3.12 µg/mL (≈ 4.62 µM); in assay [6], 12.5 µg/mL (≈ 18.5 µM); in assay [7], 6.25 µg/mL (≈ 9.25 µM); in [8] it was 3.12 µg/mL (≈ 4.62 µM).

On to `CCCCCCCCCCCCCOP(=O)(CCN(CCCN)CCCN)OC[C@H]1O[C@@H](n2ccc(=O)[nH]c2=O)C(O)C1O` (some centres unmarked) [Example 4, Tridecyl-uridine-5′-yl-2-N-bis (3-aminopropyl)-2-aminoethyl phosphonate], for which the MIC in the assay with S. haemolyticus 16568 was 6.25 µg/mL (≈ 9.65 µM); with E. coli 16702, 50 µg/mL (≈ 77.2 µM); in the assay with P. aeruginosa 16575, 25 µg/mL (≈ 38.6 µM); against S. epidermidis 8700B it was 12.5 µg/mL (≈ 19.3 µM); with S. aureus MRSA 4591, 25 µg/mL (≈ 38.6 µM); against E. faecium VanA 419ana, 100 µg/mL (≈ 154 µM). In addition, the MIC was 6.25 µg/mL (≈ 9.65 µM) against Streptococcus agalactiae; 3.12 µg/mL (≈ 4.82 µM) in the assay on Bacillus subtilis; 50 µg/mL (≈ 77.2 µM) in assay [1]; 12.5 µg/mL (≈ 19.3 µM) in assay [2]; 25 µg/mL (≈ 38.6 µM) in assay [3]; 3.12 µg/mL (≈ 4.82 µM) in [4]. Moreover, the minimum inhibitory concentration (MIC) in [5], in [6], in [7] and in assay [8] was 50 µg/mL (≈ 77.2 µM) each time.

With `CCCCCCCCCCCCOP(=O)(CCN(CCCN)CCCN)OC[C@H]1O[C@@H](n2ccc(=O)[nH]c2=O)C(O)C1O` (some centres unmarked) [Example 5, Dodecyl-uridine-5′-yl-2-N-bis (3-aminopropyl)-2-aminoethyl phosphonate], the MIC in the assay with S. haemolyticus 16568 was 12.5 µg/mL (≈ 19.7 µM); with E. coli 16702, 25 µg/mL (≈ 39.4 µM); with P. aeruginosa 16575 it was 12.5 µg/mL (≈ 19.7 µM); with S. epidermidis 8700B it was 12.5 µg/mL (≈ 19.7 µM); against S. aureus MRSA 4591, 50 µg/mL (≈ 78.9 µM); in the assay with E. faecium VanA 419ana, 200 µg/mL (≈ 316 µM). For the same compound, the MIC against Streptococcus agalactiae came to 12.5 µg/mL (≈ 19.7 µM); against Bacillus subtilis, 3.12 µg/mL (≈ 4.93 µM); in [1], 100 µg/mL (≈ 158 µM); in assay [2], 25 µg/mL (≈ 39.4 µM); in assay [3], 25 µg/mL (≈ 39.4 µM); in [4], 3.12 µg/mL (≈ 4.93 µM).
